Common to all, as to experiment: inhibition of tumour cell growth, NCI panel, 48 h
In assay [1] the test system is SF-295 CNS.
For assay [2], the system named is HCT-15 colon.
Assay [3] has as its system SK-MEL-5 melanoma.
Assay [4] concerns HCC-2998 colon.
The test system of assay [5] is KM12 colon.
For assay [6], the system named is K-562 leukemia.
Assay [7] has as its system UO-31 renal.
The test system of assay [8] is UACC-62 melanoma.
For assay [9], the system named is ACHN renal.

Values joined by “and” are separate entries in the source; they are usually repeats but may differ in a detail not shown here. Equal entries are not always repeated.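 In this assay, cells in 96-well plates receive the compound at five concentrations for 48 hours. Endpoints are linearly interpolated between the surrounding concentrations. GI50: concentration for 50% inhibition of growth. TGI: total growth inhibition.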

In the case of `COc1ccc(-c2cc(C(=O)Nc3cccc(C(F)(F)F)c3)[nH]c(=S)n2)cc1`, the TGI in assay [1], in assay [2], in assay [3], in [4], in [5] and in [6] was greater than 100 µM each time. Further, the TGI in assay [7], in assay [8] and in [9] was greater than 100 µM throughout.
For `COc1ccc(CNc2cc(OC)cc(OC)c2)cc1`, the GI50 in assay [1] was > 100 µM and 38.2 µM; in [2], > 100 µM and 46.6 µM. Moreover, the TGI in assay [1], in assay [2], in assay [3], in [4], in [5] and in [6] was greater than 100 µM in each case. Further, the TGI in assay [7] was > 100 µM and 97.8 µM; in [8] it was greater than 100 µM; in [9] it was greater than 100 µM.
Take `O=CC1=CCCC2(C1)OCCO2`: the TGI in [1], in assay [2], in assay [3], in assay [4], in assay [5] and in assay [6] was greater than 100 µM throughout. For the same compound, the TGI in [7] and in assay [8] was greater than 100 µM in each case.
In the case of `CC(=O)O[C@]1(C(C)=O)CC[C@H]2[C@@H]3C[C@H](C)C4=CC(=O)C=C[C@]4(C)[C@@]3(F)[C@@H](O)C[C@@]21C`, the TGI in [1], in assay [2], in assay [3], in assay [4], in [5] and in assay [6] was greater than 100 µM throughout. The TGI in assay [7] was 98.9 µM; in assay [8], greater than 100 µM; in assay [9], greater than 100 µM.
Consider `CC(C)(C)c1nc2c(o1)C(=Nc1ccccc1)c1ccccc1C2=O`, for which the TGI was 10.2 µM in [1]; 27.9 µM in assay [2]; 2.97 µM in assay [3]; 42.6 µM in [4]; 50.3 µM in assay [5]; 44.8 µM in assay [6]. For the same compound, the TGI was 24.3 µM in [7], 5.08 µM in assay [8] and 26.6 µM in assay [9].
In the case of `N=C(N)/N=C(/C=C/c1ccccc1)CC1OC(=O)c2ccccc21` (configuration not stated), the TGI in assay [2], in assay [3], in assay [4], in assay [5], in [6] and in assay [7] was greater than 100 µM throughout. The TGI in assay [8] and in assay [9] was greater than 100 µM in each case.
`CCOC(C)OCC#CCCBr` (configuration not stated): the TGI in assay [1], in [2], in [3], in [4], in [5] and in assay [6] was greater than 100 µM each time. Moreover, the TGI in [7], in assay [8] and in [9] was greater than 100 µM throughout.
For `O=C1c2ccn(CCCCN3CCOCC3)c2C(=O)c2c1c(O)c1ccccc1c2O`, the GI50 in [1] was 3.58 µM; in assay [2] it was 3.82 µM; in assay [5], 5.21 µM; in [6], 2 µM; in [7], 27.5 µM; in assay [9], 10.8 µM. Also, the TGI is 16.2 µM in assay [1]; 25.5 µM in [2]; 18.8 µM in [5]; 4.53 µM in assay [6]; greater than 100 µM in [7]; 28.4 µM in assay [9].
Take `OCC(O)CC[CH2][Sn]([c]1ccccc1)([c]1ccccc1)[c]1ccccc1` (configuration not stated): the GI50 in [1] is 11.3 µM; in assay [2], 12.7 µM; in assay [3], 15.3 µM; in assay [4], 18.2 µM; in assay [5] it was 13.9 µM; in assay [6], 8.59 µM. In addition, the GI50 in assay [7] was 14.8 µM; in assay [8], 16.1 µM; in [9] it was 8.89 µM. Besides, the TGI in [1] was found to be 23.3 µM; in assay [2], 26.8 µM; in [3], 29.1 µM; in [4], 34.5 µM; in assay [5], 29.8 µM; in [6], 23.8 µM. Also, the TGI in [7] came out at 28.4 µM; in assay [8], 29.8 µM; in [9] it was 21 µM.
In the case of `C[C@]12CC[C@H](O)CC1=CC[C@@H]1[C@@H]2CC[C@]2(C)C(=O)/C(=C/c3cccc(OCCCn4ccnc4)c3)C[C@@H]12`, the GI50 was 31.7 µM in [1]; 16.8 µM in assay [2]; 11.1 µM in assay [3]; 34.1 µM in assay [4]; 34 µM in assay [5]; 16 µM in assay [6]. Moreover, the GI50 in assay [7] was 16 µM; in [8], 13.1 µM; in assay [9], 16.7 µM. The TGI is greater than 100 µM in assay [1]; 40.4 µM in assay [2]; 24.6 µM in assay [3]; greater than 100 µM in [4]; greater than 100 µM in [5]; 58.1 µM in [6]. For the same compound, the results for the TGI in [7], in assay [8] and in [9] were 35.1 µM, 30 µM and 38.6 µM, respectively.
As to `COc1nc(OC)c2c(=O)oc(-c3ccccc3)cc2n1`, the TGI in [1], in assay [2], in [3], in assay [4], in assay [5] and in assay [6] was greater than 100 µM each time. In addition, the TGI in assay [7], in assay [8] and in assay [9] was greater than 100 µM each time.
`O=c1cc2n(c(=O)[nH]1)C1OC(C(O)C1O)[C@@H]2CCO` (some centres not stated): the TGI in assay [1], in [3], in assay [5], in [6], in [7] and in [8] was greater than 100 µM throughout. Besides, in assay [9], the TGI was greater than 100 µM.
On to `CC(NC(=O)c1ccccc1)C(=O)N(Cc1ccccc1)Cc1ccccc1` (configuration not stated), for which the TGI is 75 µM in assay [1]; 88.9 µM in assay [2]; 44.9 µM in [3]; greater than 100 µM in [4]; 58 µM in assay [5]; 43.5 µM in [6]. In addition, the TGI in [7] was 83.9 µM; in assay [8] it was 30.7 µM; in [9], greater than 100 µM.
Regarding `O=[N+]([O-])c1ccccc1S(=O)c1ccccc1` (configuration not stated), the TGI in assay [1], in [2], in [3], in assay [4], in assay [5] and in [6] was greater than 100 µM each time. Besides, the TGI in assay [7], in [8] and in [9] was greater than 100 µM each time.
Consider `CC1OCC2OC(C)OC(C3C4=C(CC(C)(C)CC4=O)OC4=C3C(=O)CC(C)(C)C4)C2O1` (configuration not stated), for which the TGI in [1], in assay [2], in [3], in [4], in assay [5] and in assay [6] was greater than 100 µM in each case. Moreover, the TGI in [7], in assay [8] and in assay [9] was greater than 100 µM each time.
On to `O=C1CCC2(c3ccc(F)cc3)Nc3ccccc3N12` (configuration not stated), for which the TGI in assay [1], in [2], in assay [3], in assay [4], in assay [5] and in [6] was greater than 100 µM each time. For the same compound, the TGI in assay [7], in assay [8] and in assay [9] was greater than 100 µM each time.
Turning to `Cc1cccc(C)c1NC(=O)CCC(=O)NNC(=O)c1cc(O)c2ccccc2c1`, the TGI in assay [1] was 87.6 µM; in [2], greater than 100 µM; in assay [3], 84.6 µM; in assay [4], greater than 100 µM; in assay [5], greater than 100 µM; in assay [6], greater than 100 µM. In addition, the values for the TGI in assay [7], in [8] and in [9] were greater than 100 µM, 71.3 µM and greater than 100 µM, respectively.
Regarding `COC(=O)OCC1OC(N2C(=O)NC(=O)C(I)C2N=[N+]=[N-])CC1OC(=O)OC` (configuration not stated), the TGI in assay [1], in assay [2], in [3], in [4], in assay [5] and in [6] was greater than 100 µM throughout. In addition, the TGI in [7], in [8] and in assay [9] was greater than 100 µM throughout.
For the compound `[Cu+2].[Cu+2].[O-]c1ccccc1C=Nc1ccccc1[O-].[O-]c1ccccc1C=Nc1ccccc1[O-]`, the GI50 was 8.01 µM in [1]; 7.25 µM in assay [2]; 3.3 µM in assay [3]; 10.3 µM in assay [4]; 10 µM in assay [5]; 4.07 µM in assay [6]. Besides, the GI50 is 12.6 µM in assay [7], 3.55 µM in assay [8] and 7.81 µM in assay [9]. In addition, the TGI was found to be 27.6 µM in assay [1]; 21.5 µM in [2]; 12 µM in [3]; 22.4 µM in [4]; 27 µM in assay [5]; 52.9 µM in assay [6]. Moreover, the results for the TGI in assay [7], in [8] and in assay [9] were 25.2 µM, 14 µM and 20.8 µM, respectively.
For the compound `CN(C)CCC1(C2=CCCC2)CC/C(=C\c2ccc3c(c2)OCO3)C1=O` (configuration not stated), the TGI in [1] was determined as 29.5 µM; in assay [2], 29 µM; in assay [3] it was 27.6 µM; in assay [4], 29.6 µM; in assay [5] it was 31.8 µM; in assay [6] it was 32 µM. Moreover, the TGI in assay [7] worked out at 20.2 µM; in [8] it was 39.5 µM; in assay [9] it was 29.6 µM.
`CCc1nc2c(O)ccc(O)c2nc1C`: the TGI in assay [1] is 34.2 µM; in [2], 30.6 µM; in [3] it was 31.2 µM; in assay [4], greater than 54.9 µM; in [5] it was 30.8 µM; in [6], greater than 20.8 µM. Also, the TGI in assay [7] was determined as 33.5 µM; in [8], 27.5 µM; in assay [9], 23 µM.
As to `Cc1c(/C=C2\CC/C(=C\c3[nH]c(C(=O)OC(C)(C)C)c(C)c3C)C2=O)[nH]c(C(=O)OC(C)(C)C)c1C`, the TGI in [1], in [2], in assay [3], in assay [4], in [5] and in assay [6] was greater than 100 µM throughout. The TGI in assay [7] and in assay [8] was greater than 100 µM throughout.
In the case of `O=C(/C=C/c1ccc(OCCCCCCCCCCOc2ccc(/C=C/C(=O)c3ccc(Cl)cc3)cc2)cc1)c1ccc(Cl)cc1`, the TGI in assay [1], in [2], in [3], in assay [4], in [5] and in assay [6] was greater than 100 µM throughout. Besides, the TGI in assay [7], in [8] and in [9] was greater than 100 µM in each case.
As for `CN(C)CCNC(=O)c1ccc2ccc3cccnc3c2n1`, the TGI in [1] is 88.2 µM; in assay [2] it was 63.5 µM; in assay [3] it was 28.3 µM; in [4], 25.4 µM; in assay [5], 95.6 µM; in [6] it was greater than 100 µM. Also, the TGI in assay [7] was found to be 47.9 µM; in assay [8], 30.4 µM; in assay [9], 97.3 µM.
As to `CS(=O)(=O)C1S(=O)(=O)OCCOS1(=O)=O`, the TGI in assay [1], in [3], in [4], in assay [5], in assay [6] and in [7] was greater than 100 µM each time. The TGI in assay [8] and in [9] was greater than 100 µM each time.
Turning to `Cc1ccc(S(=O)(=O)N(C)C)cc1[N+](=O)[O-]`, the GI50 was greater than 100 µM in assay [1]; greater than 100 µM in assay [2]; greater than 100 µM in assay [3]; greater than 100 µM in assay [4]; greater than 100 µM in [5]; 21.5 µM in assay [7]. The GI50 in assay [8] and in [9] was greater than 100 µM each time. Besides, the TGI in assay [1], in [2], in [3], in [4], in assay [5] and in assay [7] was greater than 100 µM each time. Further, the TGI in assay [8] and in assay [9] was greater than 100 µM throughout.

Source of the values: PubChem BioAssay (NCI).
